# Assays:
# [1] = tested on: tropical signalgrass (Urochloa subquadripara); experiment: Tropical signalgrass control in Bermudagrass plots; assay type: in vivo; conditions: 28 days after application
# Source text: Applications of pinoxaden, and pinoxaden plus cloquintocet were applied to various Bermudagrass plots with tropical […] present between August 11 and August 13. The plots were again evaluated 28 days following the application. The following percent weed controls were observed.
# [2] = tested on: dallisgrass (Paspalum dilatatum); experiment: Dallisgrass control in bermudagrass; assay type: in vivo; conditions: two applications, 28 days after the first application
# Source text: Applications initiated on Oct. 1, 2014.
# initiated in AL for dallisgrass control in bermudagrass on Oct. 28, 2013. Two applications were applied. Percent dallisgrass control was taken 28 days after the first application.
smiles,measurement,setting,value
"CCc1cc(C)cc(CC)c1-c1c(OC(=O)C(C)(C)C)n2n(c1=O)CCOCC2 [Pinoxaden, 8-(2,6-Diethyl-4-methylphenyl)-7-oxo-1,2,4,5-tetrahydro-7H-pyrazolo[1,2-d][1,4,5]oxadiazepin-9-yl-2,2-dimethylpropanoat]",% Control (28 Days AIA),[1]; 70 g active/ha,79.5%
same,% Control (28 Days AIA),[1]; 140 g active/ha,89.7%
same,% Control (28 Days AIA),[2]; 45 g active/ha,82%
same,% Control (28 Days AIA),[2]; 90 g active/ha,85%
